{"source": "paper PMC12747546", "about": "“Homoharringtonine suppresses acute myeloid leukemia progression by orchestrating EWSR1 phase separation in an m^6A‐YTHDF2‐dependent mechanism” (iMeta, 2025)", "assay_in_all_cases": "microscale thermophoresis", "conditions_in_all_cases": "EWSR1-C mutant; read-out: binding constants", "key": {"[1]": {"molecular_target": "T1, EWSR1-C (GFP-EWSR1-C) (Homo sapiens, UniProt Q01844, I400A)", "T1 construct": "C-terminal region 301-656 (contains RNA recognition motif 353-453), GFP fusion, overexpressed in HEK293T, lysate", "T1 sequence (Q01844 301-656 I400A)": "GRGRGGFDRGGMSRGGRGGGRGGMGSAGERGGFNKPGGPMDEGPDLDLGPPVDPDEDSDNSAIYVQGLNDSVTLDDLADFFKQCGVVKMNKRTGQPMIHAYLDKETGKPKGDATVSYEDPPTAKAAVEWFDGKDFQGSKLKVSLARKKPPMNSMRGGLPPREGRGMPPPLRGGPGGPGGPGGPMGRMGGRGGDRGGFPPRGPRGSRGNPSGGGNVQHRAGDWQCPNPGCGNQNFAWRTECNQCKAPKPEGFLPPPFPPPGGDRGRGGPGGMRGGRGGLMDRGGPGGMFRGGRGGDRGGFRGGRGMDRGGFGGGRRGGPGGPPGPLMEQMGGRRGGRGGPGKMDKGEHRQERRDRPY", "protocol": "(§1) microscale thermophoresis on EWSR1-C (GFP-EWSR1-C) | The binding affinity of HHT to these EWSR1 mutants was assessed through MST"}, "[2]": {"molecular_target": "T2, EWSR1-C (GFP-EWSR1-C) (Homo sapiens, UniProt Q01844, M397A)", "T2 construct": "C-terminal region 301-656 (contains RNA recognition motif 353-453), GFP fusion, overexpressed in HEK293T, lysate", "T2 sequence (Q01844 301-656 M397A)": "T1 sequence (Q01844 301-656 I400A) with M97A, A100I", "protocol": "as §1"}, "[3]": {"molecular_target": "T3, EWSR1-C (GFP-EWSR1-C) (Homo sapiens, UniProt Q01844, P396A)", "T3 construct": "C-terminal region 301-656 (contains RNA recognition motif 353-453), GFP fusion, overexpressed in HEK293T, lysate", "T3 sequence (Q01844 301-656 P396A)": "T1 sequence (Q01844 301-656 I400A) with P96A, A100I", "protocol": "as §1"}, "[4]": {"molecular_target": "T4, EWSR1-C (GFP-EWSR1-C) (Homo sapiens, UniProt Q01844, T393A)", "T4 construct": "C-terminal region 301-656 (contains RNA recognition motif 353-453), GFP fusion, overexpressed in HEK293T, lysate", "T4 sequence (Q01844 301-656 T393A)": "T1 sequence (Q01844 301-656 I400A) with T93A, A100I", "protocol": "as §1"}}, "note": "Changes are numbered by the printed parent chain."}
{"smiles": "COC(=O)C[C@](O)(CCCC(C)(C)O)C(=O)O[C@@H]1C(OC)=C[C@]23CCCN2CCc2cc4c(cc2[C@H]13)OCO4", "note": "[Homoharringtonine]", "values": [{"measurement": "Kd", "setting": "[1]", "value": 35.7, "unit": "µM"}, {"measurement": "Kd", "setting": "[2]", "value": 9.75, "unit": "µM"}, {"measurement": "Kd", "setting": "[3]", "value": 94.6, "unit": "µM"}, {"measurement": "Kd", "setting": "[4]", "value": 81, "unit": "µM"}]}
